From patent publication US4647563A, “Heterocyclic compounds” (Boehringer Ingelheim KG, priority 1978, dated 1987) come the findings set out here.

Data set [1] relates to acetylcholine bronchospasm. The data set can be described thus: Bronchospasmolysis: influence on acetylcholine bronchospasm in guinea pigs under urethane anaesthesia, body plethysmography. It is filed as in vivo. Conditions: Cavia porcellus. The procedure:
1. Bronchospasmolysis The activity was tested on guinea pigs under urethane anaesthesia. Body plethysmography was used to determine the influence on acetylcholine bronchospasm after intravenous and oral application.

Another data set deals with heart rate. Put plainly: Increase in heart rate at the ED50 of uterine relaxation on anesthetized rats. It counts as in vivo. The procedure:
(§1) Uterine relaxation was investigated on anesthetized rats. The intravenous ED50 of uterine relaxation was determined in ug/kg (50% of the tested animals react) and the (undesirable) increase in heart rate at the ED50 value was also determined. The comparison compound was fenoterol.

For a further data set, the system named is Uterine relaxation. Put plainly: Uterine relaxation on anesthetized rats. Conditions: Rattus norvegicus, iv, read-out: Uterine relaxation ED50 i.v. It counts as in vivo. The procedure: as §1
A short description of data set [2]: Acute toxicity, LD50 in mice. Conditions: mouse, in vivo.
Where [3] appears, read: intravenous, read-out: Broncholysis ED50 intravenous.
The mark [4] stands for this setting: oral, read-out: Broncholysis ED50 oral.
Setting [5] is: anesthetized rats, 50% of the tested animals react.

Read-outs that look alike come from different tables or passages of the source.

What is called ED50 is the midpoint of the dose-response relation. As to `CC(C)(CCn1cnc2ccccc21)NCC(O)c1ccc(O)c(NC(N)=O)c1` (stereo not drawn) [Table III, 15th compound], the ED50 in data set [1] (setting [3]) was found to be 0.9 µg/kg; in data set [1] (setting [4]) it was 14 µg/kg.

Regarding `CC(C)(CCCn1cnc2ccccc21)NCC(O)c1ccc(O)c(NS(C)(=O)=O)c1` (stereo not drawn) [Table II, 24th compound], in the data set with heart rate (rat, in vivo), the “Increase in heart rate in comparison with fenoterol” value (shortened to “Increase … with fenoterol”) is on record as 1/2. In addition, the “Increase in heart rate (beats per min.)” value in the data set on heart rate (rat, in vivo, iv) was 18 beats per min. Besides, the ED50 in the data set on Uterine relaxation (setting [5]) is 0.5 µg/kg.

For `CC(C)(CCn1cnc2ccccc21)NCC(O)c1ccc(O)cc1Cl` (stereo not drawn) [Table II, 21st compound], the results for the ED50 in data set [1] (setting [3]) and in data set [1] (setting [4]) were 7.6 µg/kg and 190 µg/kg, respectively.

In the case of `CC(C)(CCn1cnc2ccccc21)NCC(O)c1ccc(O)cc1` (stereo not drawn) [Table III 10th compound], the “Increase … with fenoterol” value in the data set on heart rate (rat, in vivo) is 1/2. Besides, in the data set with heart rate (rat, in vivo, iv), the “Increase in heart rate (beats per min.)” value is reported as 19 beats per min. Further, in the data set on Uterine relaxation (setting [5]), the ED50 was 0.82 µg/kg.

As for `CC(C)(C)NCC(O)c1ccc(O)c(CO)c1` (stereo not drawn) [Salbutamol, reference compound], the ED50 in data set [1] (setting [3]) stood at 9.2 µg/kg; in data set [1] (setting [4]), 1000 µg/kg.

`CC(C)(CCn1cnc2ccccc21)NCC(O)c1ccc(O)c(CO)c1` (stereo not drawn) [Table III, 16th compound]: the ED50 in data set [1] (setting [3]) came out at 1.2 µg/kg; in data set [1] (setting [4]) it was 7.6 µg/kg.

For `CC(C)(CCn1cnc2ccccc21)NCC(O)c1ccc(O)c2c1OCC(=O)N2` (stereo not drawn) [Table III, 24th compound], in data set [1] (setting [4]), the ED50 was determined as 5.4 µg/kg.

With `Cc1c(C(O)CNC(C)(C)CCn2nnc3ccccc32)ccc(O)c1O` (stereo not drawn) [Table II, 15th compound], in the data set with heart rate (rat, in vivo), the “Increase … with fenoterol” value is given as 2/3. The “Increase in heart rate (beats per min.)” value with heart rate (rat, in vivo, iv) is 23 beats per min. In addition, in the data set on Uterine relaxation (setting [5]), the ED50 came to 0.44 µg/kg.

As a reminder, the LD50 is the dose at which mortality reaches 50%. A high value points to a less toxic substance. Regarding `CC(C)(CCn1cnc2ccccc21)NCC(O)c1ccc(O)cc1F` (stereo not drawn) [Example 6, 1-(2-Fluoro-4-hydroxy-phenyl)-2-[4-(1-benzimidazolyl)-2-methyl-2-butylamino]-ethanol], the LD50 was found to be 29000 µg/kg in data set [2] (iv) and 300000 µg/kg in data set [2] (po). The ED50 in data set [1] (setting [3]) is 3.6 µg/kg; in data set [1] (setting [4]), 7 µg/kg.

Turning to `CC(=O)Nc1cc(C(O)CNC(C)(C)CCn2cnc3ccccc32)ccc1O` (stereo not drawn) [Table II, 16th compound], the values for the ED50 in data set [1] (setting [3]) and in data set [1] (setting [4]) were 1.8 µg/kg and 66 µg/kg, respectively.

Consider `CC(Cc1ccc(O)cc1)NCC(O)c1cc(O)cc(O)c1` (stereo not drawn) [Fenoterol, reference compound], for which, in the data set on heart rate (at the ED50 of uterine relaxation, fenoterol = 1, rats), the “Increase … with fenoterol” value is reported as 1. Besides, in the data set with heart rate (at the ED50 of uterine relaxation, i.v., anesthetized rats), the “Increase in heart rate (beats per min.)” value came out at 36 beats per min. Further, the ED50 in the data set on Uterine relaxation came to 0.45 µg/kg.
